The results in this text go back to US6410594B1, “Substituted cyclopentane compounds useful as neuraminidase inhibitors” (Biocryst Pharmaceuticals, Inc., priority 1996, dated 2002).

The structures appear in SMILES notation. Structures can show the parent of a compound that is named as a salt.

Chain of H1N9 Influenza Neuraminidase (P03472 83-470 limits assumed): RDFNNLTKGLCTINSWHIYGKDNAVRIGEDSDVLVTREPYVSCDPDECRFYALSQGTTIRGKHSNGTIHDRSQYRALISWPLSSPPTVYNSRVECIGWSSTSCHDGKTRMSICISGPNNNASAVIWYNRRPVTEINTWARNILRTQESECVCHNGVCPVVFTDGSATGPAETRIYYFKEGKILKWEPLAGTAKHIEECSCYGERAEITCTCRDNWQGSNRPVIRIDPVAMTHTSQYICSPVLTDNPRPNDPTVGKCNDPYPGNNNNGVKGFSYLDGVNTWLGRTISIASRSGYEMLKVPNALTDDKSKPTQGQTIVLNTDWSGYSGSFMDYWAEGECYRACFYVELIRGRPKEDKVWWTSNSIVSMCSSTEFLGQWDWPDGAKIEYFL

The first data set addresses H1N9 Influenza Neuraminidase (Influenza A virus, UniProt P03472). As to the kind of experiment: biochemical. Set-up: species or system influenza virus (H1N9 strain). The following applies: 10 min at 37° C.; read-out: Inhibition of H1N9 Influenza Neuraminidase IC50.
What is called IC50 is the concentration that inhibits the measured activity by half. For the compound `CC(=O)NC[C@@H]1C[C@H](C(=O)O)C[C@H]1NC(=N)N` (relative stereo) [Example 3, t-3-{[(Amino)(imino)methyl]amino}-c-4-[(methylcarbonylamino)methyl]-cyclopentan-r-carboxylic acid trifluoroacetic acid [1:1.25]], the IC50 is 115 µM.

In the case of `N=C(N)NC[C@@H]1C[C@H](C(=O)O)C[C@H]1NC(=N)N` (relative stereo) [Example 5, t-3-{[(Amino)(imino)methyl]amino}-c-4-{{[(amino)(imino)methyl]amino}methyl}cyclopentan-r-carboxylic acid dihydrochloride hydrate 2-propanol (5:10:5:2)], the half-maximal inhibitory concentration (IC50) was determined as 280 µM. Same read-out and setting: with `CC(=O)NC(CO)[C@H]1C[C@@](O)(C(=O)O)C[C@@H]1NC(=N)N` (single isomer, unassigned; isomer a) [Example 9, t-3-{[(Amino)(imino)methyl]amino}-t-1-hydroxy-c-4-[(2-hydroxymethyl)(1-methylcarbonyl-amino)ethyl]cyclopentan-r-carboxylic acid trifluoroacetic acid diethyl ether [20:15:2] (isomer A at C-6)] the figure was 600 µM; with `CC(=O)NC(C(O)C(O)CO)[C@H]1CC(C(=O)O)C[C@@H]1N` (single isomer, unassigned; isomer a) [Example 10, 3β-amino-4α-[(1-methylcarbonylamino)(2,3,4-trihydroxy)butyl]cyclopentancarboxylic acid trifluoroacetic acid (1:1) (isomer A at C-6)], 600 µM. For `CC(=O)NC(C(O)C(O)CO)[C@H]1CC(C(=O)O)C[C@@H]1NC(=N)N` (single isomer, unassigned; isomer a) [Example 12, 3β-{[(Amino)(imino)methyl]amino}-4α-[(1-methylcarbonylamino) (2,3,4-trihydroxy)butyl)butyl]-cyclonentancarboxylic acid trifluoroacetic acid (1:2) (isomer A at C-1, isomer A at C-6, isomer B at C-7)], the IC50 is 7.5 µM. For the compound `CC(=O)NC(COC(=O)C(F)(F)F)[C@H]1C[C@](O)(C(=O)O)C[C@@H]1NC(=N)N` (single isomer, unassigned; isomer a) [Example 16, c-3-{[(Amino)(imino)methyl]amino}-t-1-hydroxy-t-4-[(1-methylcarbonylamino)(2-trifluoromethyl-carbonyloxy)ethyl]cyclopentan-r-carboxylic acid trifluoroacetic acid (4:1) (isomer A at C-6)], the IC50 amounted to 70 µM.

Turning to `CC(=O)NC(CO)[C@H]1CC(C(=O)O)C[C@@H]1NC(=N)N` (single isomer, unassigned; isomer b) [Example 7, Sodium 3β-{[(amino)(imino)methyl]amino}-4α-[(2-hydroxy)(1-methylcarbonylamino)ethyl]-cyclopentan-r-carboxylate:diethylether:hydrate (12:4:3), isomer B], the IC50 came to 3800 µM. In the case of `CC(=O)NC(C(O)C(O)CO)[C@H]1CC(C(=O)O)C[C@@H]1NC(=N)N` (single isomer, unassigned; isomer b) [Example 13, 3β-{[(Amino)(imino)methyl]amino}-4α-[(1-methylcarbonylamino)(2,3,4-trihydroxy)butyl]-cyclopentancarboxylic acid trifluoroacetic acid (1:2) (isomer B at C-1, isomer A at C-6, isomer B at C-7)], the IC50 turned out to be 4.3 µM.

`CC(=O)NC(C(O)C(O)CO)[C@H]1CC(C(=O)O)C[C@@H]1NC(=N)N` (single isomer, unassigned; isomer b) [Example 14, 3β-{[(Amino)(imino)methyl]amino}-4α-[(1-methylcarbonylamino)(2,3,4-trihydroxy)butyl]cyclo-pentancarboxylic acid trifluoroacetic acid (4:9) (isomer B at C-6, isomer A at C-1, C-7 and/or C-8)]: the IC50 worked out at 40 µM. For `CC(=O)NC(C(O)C(O)CO)[C@H]1CC(C(=O)O)C[C@@H]1NC(=N)N` (single isomer, unassigned; isomer b) [Example 15, 3β-{[(Amino)(imino)methyl]amino}-4α-[(1-methylcarbonylamino)(2,3,4-trihydroxy)butyl]cyclo-pentancarboxylic acid trifluoroacetic acid (5:13) (isomer B at C-6, isomer B at C-1, C-7 and/or C-8)], the IC50 came to 50 µM. Still for that read-out and setting: under `CC(=O)NC(COC(=O)C(F)(F)F)[C@H]1C[C@](O)(C(=O)O)C[C@@H]1NC(=N)N` (single isomer, unassigned; isomer b) [Example 17, c-3-{[(Amino)(imino)methyl]amino}-t-1-hydroxy-t-4-[(1-methylcarbonylamino)(2-trifluoromethyl-carbonyloxy)ethyl]cyclopentan-r-carboxylic acid trifluoroacetic acid (4:3) (isomer B at C-6)] stands 2000 µM.

System in the next data set: not given
Assay: not given
Conditions: not given
In general, melting point refers to the temperature, or range, at which the solid turns liquid. On to `CC(=O)NC(COCc1ccccc1)[C@H]1C[C@@](O)(C(=O)O)C[C@@H]1N` (some centres unmarked) (as salt: ammonium), for which the melting point was in the range of 37 to 39 °C. `CC(=O)NC(CO)[C@H]1C[C@@](O)(C(=O)O)C[C@@H]1N` (some centres unmarked) (as salt: ammonium): the melting point fell in the range of 83 to 85 °C. As for `CCC=CC(NC(C)=O)[C@H]1CC(C(=O)O)C[C@@H]1NC(=N)N` (some centres unmarked) (as salt: salt), the melting point lay in the range of 62 to 64 °C. Same read-out and setting: under `CON(C)CCC(=O)C(NC(C)=O)[C@H]1CC(C(=O)O)C[C@@H]1NC(=N)N` (some centres unmarked) (as salt: salt) [Example 20] stands 189 to 192 °C; under `CCCN(CCC)C(=O)C(NC(C)=O)[C@H]1C[C@@](O)(C(=O)O)C[C@@H]1NC(=N)N` (some centres unmarked) (as salt: salt) [Example 23, t-3-{[(Amino)(imino)methyl]amino}-c-4-[(di-n-propylaminocarbonyl)(methylcarbonylamino)-methyl]-t-hydroxycyclpentan-r-carboxylic acid trifluoroacetic acid (4:5)], 153 to 155 °C; under `CC(=O)NC(C(O)C(O)CO)[C@H]1CC(C(=O)O)C[C@@H]1N` (single isomer, unassigned) (as salt: salt), 58 to 62 °C. The same measure, in the same setting: under `CCCN(CCC)C(=O)C(NC(C)=O)[C@H]1C[C@@](O)(C(=O)O)C[C@@H]1N` (single isomer, unassigned) (as salt: salt) stands 168 to 170 °C; under `CCN(CC)C(=O)C(NC(C)=O)[C@H]1C[C@@H](C(=O)O)C[C@@H]1NC(=N)N` (single isomer, unassigned) (as salt: trifluoroacetic acid salt), > 110 °C (dec.). Still for that read-out and setting: under `CC(=O)NC(C(O)C(O)CO)[C@H]1CC(C(=O)O)C[C@@H]1NC(=N)N` (single isomer, unassigned; isomer a) (as salt: salt) [Example 12, 3β-{[(Amino)(imino)methyl]amino}-4α-[(1-methylcarbonylamino) (2,3,4-trihydroxy)butyl)butyl]-cyclonentancarboxylic acid trifluoroacetic acid (1:2) (isomer A at C-1, isomer A at C-6, isomer B at C-7)] stands 76 to 80 °C. In the case of `CC(=O)NC(COC(=O)C(F)(F)F)[C@H]1C[C@](O)(C(=O)O)C[C@@H]1NC(=N)N` (single isomer, unassigned; isomer a) (as salt: salt) [Example 16, c-3-{[(Amino)(imino)methyl]amino}-t-1-hydroxy-t-4-[(1-methylcarbonylamino)(2-trifluoromethyl-carbonyloxy)ethyl]cyclopentan-r-carboxylic acid trifluoroacetic acid (4:1) (isomer A at C-6)], the melting point lay in the range of 148 to 160 °C.

The compound `CC(=O)NC(C(O)C(O)CO)[C@H]1CC(C(=O)O)C[C@@H]1NC(=N)N` (single isomer, unassigned; isomer b) (as salt: salt) [Example 13, 3β-{[(Amino)(imino)methyl]amino}-4α-[(1-methylcarbonylamino)(2,3,4-trihydroxy)butyl]-cyclopentancarboxylic acid trifluoroacetic acid (1:2) (isomer B at C-1, isomer A at C-6, isomer B at C-7)] had a melting point of 124 to 128 °C. In turn, `CC(=O)NC(C(O)C(O)CO)[C@H]1CC(C(=O)O)C[C@@H]1NC(=N)N` (single isomer, unassigned; isomer b) (as salt: salt) [Example 14, 3β-{[(Amino)(imino)methyl]amino}-4α-[(1-methylcarbonylamino)(2,3,4-trihydroxy)butyl]cyclo-pentancarboxylic acid trifluoroacetic acid (4:9) (isomer B at C-6, isomer A at C-1, C-7 and/or C-8)] came in with a melting point of 125 to 135 °C.

In the case of `CC(=O)NC(C(O)C(O)CO)[C@H]1CC(C(=O)O)C[C@@H]1NC(=N)N` (single isomer, unassigned; isomer b) (as salt: salt) [Example 15, 3β-{[(Amino)(imino)methyl]amino}-4α-[(1-methylcarbonylamino)(2,3,4-trihydroxy)butyl]cyclo-pentancarboxylic acid trifluoroacetic acid (5:13) (isomer B at C-6, isomer B at C-1, C-7 and/or C-8)], the melting point was in the range of 140 to 145 °C. On to `CC(=O)NC(COC(=O)C(F)(F)F)[C@H]1C[C@](O)(C(=O)O)C[C@@H]1NC(=N)N` (single isomer, unassigned; isomer b) (as salt: salt) [Example 17, c-3-{[(Amino)(imino)methyl]amino}-t-1-hydroxy-t-4-[(1-methylcarbonylamino)(2-trifluoromethyl-carbonyloxy)ethyl]cyclopentan-r-carboxylic acid trifluoroacetic acid (4:3) (isomer B at C-6)], for which the melting point lay in the range of 210 to 220 °C.

Compound `CC(=O)NC(CO)[C@H]1CC(C(=O)[O-])C[C@@H]1NC(=N)N.[Na+]` (single isomer, unassigned; isomer b) (hydrate or solvate) [Example 7, Sodium 3β-{[(amino)(imino)methyl]amino}-4α-[(2-hydroxy)(1-methylcarbonylamino)ethyl]-cyclopentan-r-carboxylate:diethylether:hydrate (12:4:3), isomer B] returned a melting point of 65 °C.
